Consider four compounds from US20250353891A1 (MEDIMMUNE LIMITED, priority 2022, published 2025).

Data set [1] deals with human GLP-1 receptor (hGLP-1R) (Homo sapiens, UniProt P43220). Nature of the data set: cAMP production (HTRF) in CHO cells expressing hGLP-1R. In kind it is cell-based. Also on record: expressed in transfected cells. As to conditions: for EC50: cAMP in CHO hGLP-1R cells, geometric mean, read-out: hGLP-1R EC50; for % Relative Potency Ratio: % GLP-1R activity relative to GLP-1 / % GlucR activity relative to glucagon. In a few lines: (§1)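 Potency values represent EC50 from 4-parameter logistic curves of HTRF % Delta F signal. Receptor-expressing CHO cells (hGCGR 2×10^5 cells/mL, hGLP-1R 1×10^5 cells/mL) were exposed for 30 min at room temperature before two-step cAMP detection.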
On the technique in general: Cyclic AMP is a second messenger, typically raised through Gs and lowered through Gi signalling.

Data set [2] can be described thus: Proteolytic resistance to FasSSGF containing porcine pancreatic pepsin. In kind it is in vitro ADME. The conditions noted are these: pig, simulated gastric fluid. Here is the method: Stimulated Gastric Fluid (FasSSGF) Containing Porcine Pancreatic Pepsin Lyophilized porcine pancreatic pepsin (Sigma: P7012) was reconstituted to 0.5 mg/mL (˜2500 units/mL) in freshly prepared FasSSGF (Biorelevant media) to give the enzyme stock solution. Peptide stock solution was prepared to a concentration of 250 μM (˜1.0 mg/mL) in FasSSGF. 200 μL ([…], ˜250 units) of pepsin stock solution was added to 200 μL of peptide solution (1.0 mg/mL, ˜100 μg of peptide, ˜25 nmoles) and the mixture was co-incubated in a temperature-regulated incubator at 37° C. for the duration of the experiment. 30 μL aliquot of the peptide-enzyme mixture was periodically withdrawn (t=0, 5, 10, 15, and 30 min) and quenched immediately by addition of 80 μL of 0.1M ammonium bicarbonate solution in water/acetonitrile (4:1, pH 8) to arrest proteolytic activity. 30 μL aliquot was analyzed by analytical RP-HPLC. Analytical RP-HPLC method: Agilent Polaris C8-A column (4.6×100 mm, 3 micron) eluted with a linear binary gradient of 10-90% MeCN (0.1% TFA v/v) in water (0.1% TFA v/v) over either 10 or 15 mins at 1.5 mL min-1 at 40° C. with detection by UV absorption at 210 nm. Manual integration (AUC) allowed estimation of remaining intact peptide over the time course of the experiment.

A further data set concerns the target T1, recombinant Neprilysin (Homo sapiens, UniProt P08473).
T1 construct: purchased R&D Systems 1182-ZNC-010
Description: Proteolytic resistance to neprilysin. In kind it is in vitro ADME. The conditions noted are these: pH 8.3; for remaining at 4 h / remaining at 24 h: isolated enzyme neprilysin. As to the method:
10.0 μg (˜10 units) recombinant Neprilysin (R&D Systems: 1182-ZNC-010) was reconstituted to 100 μL (100 μg/mL, ˜100 units/mL) in assay buffer (50 mM Tris, 50 mM NaCl, 50 mM NaHCO3, adjusted to pH 8.3) to give the enzyme stock solution. Peptide stock solutions were prepared to a concentration of ˜250 μM (˜1.0 mg/mL of 4 kDa peptide) in assay buffer. 100 μL (10 μg, ˜10 units) of neprilysin stock solution was added to 100 μL of peptide stock solution (1.0 mg/mL, ˜100 μg of peptide) and the mixture was co-incubated in a temperature regulated incubator at 37° C. for the duration of the experiment. 25 μL aliquots (˜ 12.5 μg initial peptide) of the peptide-enzyme mixture were periodically withdrawn (t=0, 30 mins, 1 h, 2 h, 4 h and 24 h) and quenched immediately by addition to an equal volume ([…]) of 10% TFA (v/v) in 1:1 water/acetonitrile to arrest proteolytic activity. The quenched aliquot centrifuged at 7800 rpm, and 30 μL of the supernatant was analyzed by analytical RP-HPLC as follows: Analytical RP-HPLC method: Agilent Polaris C8-A column (4.6×100 mm, 3 micron) eluted with a linear binary gradient of 10-90% MeCN (0.1% TFA v/v) in water (0.1% TFA v/v) over either 10 or 15 mins at 1.5 mL min-1 at 40° C. with detection by UV absorption at 210 nm. Manual integration (AUC) allowed estimation of remaining intact peptide over the time course of the experiment.

Data set [3] deals with human glucagon receptor (hGCGR) (Homo sapiens, UniProt P47871). Description: cAMP production (HTRF) in CHO cells expressing hGCGR. The conditions noted are these: cAMP in CHO hGCGR cells, geometric mean, read-out: hGluc-R EC50. Set-up: expressed in transfected cells. The class given is cell-based. The essentials:
as §1

Setting [4] is: Table 7, peptides modified at position 20.
Setting [5] is: Table 6, peptides modified at position 17.

SMILES strings stand for the structures. Read-outs that look alike come from different tables or passages of the source. Starred links: 1 amine or outer side, 2 acyl side, 3 side chain; linkers in the order of their positions; H or OH if unused. Non-standard residues stand in square brackets, D forms with d. Residues, ends and D or L forms follow the SMILES beside them. Groups on a side chain read outwards from the residue. *: point of attachment. C20 diacid = O=C(O)CCCCCCCCCCCCCCCCCCC(=O)*; C18 diacid = O=C(O)CCCCCCCCCCCCCCCCC(=O)*; γGlu = O=C(O)[C@H](CCC(=O)[*:2])N[*:1]; αMeF = C[C@](N)(Cc1ccccc1)C(=O)O; AEEA = NCCOCCOCC(=O)O; Aib = CC(C)(N)C(=O)O

Sequence of human GLP-1 receptor (hGLP-1R) (P43220 24-463): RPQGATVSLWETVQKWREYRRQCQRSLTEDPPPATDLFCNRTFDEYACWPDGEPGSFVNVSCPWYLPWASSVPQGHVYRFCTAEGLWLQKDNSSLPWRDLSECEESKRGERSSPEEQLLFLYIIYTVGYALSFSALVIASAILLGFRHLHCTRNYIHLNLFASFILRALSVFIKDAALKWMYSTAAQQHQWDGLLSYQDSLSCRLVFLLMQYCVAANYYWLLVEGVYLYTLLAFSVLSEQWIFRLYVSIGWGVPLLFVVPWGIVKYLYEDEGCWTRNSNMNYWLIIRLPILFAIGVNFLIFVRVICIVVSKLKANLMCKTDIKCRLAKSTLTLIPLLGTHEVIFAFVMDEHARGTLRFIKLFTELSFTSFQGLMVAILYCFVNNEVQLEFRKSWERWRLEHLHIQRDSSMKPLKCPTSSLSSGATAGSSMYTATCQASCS
Sequence of human glucagon receptor (hGCGR) (P47871 26-477): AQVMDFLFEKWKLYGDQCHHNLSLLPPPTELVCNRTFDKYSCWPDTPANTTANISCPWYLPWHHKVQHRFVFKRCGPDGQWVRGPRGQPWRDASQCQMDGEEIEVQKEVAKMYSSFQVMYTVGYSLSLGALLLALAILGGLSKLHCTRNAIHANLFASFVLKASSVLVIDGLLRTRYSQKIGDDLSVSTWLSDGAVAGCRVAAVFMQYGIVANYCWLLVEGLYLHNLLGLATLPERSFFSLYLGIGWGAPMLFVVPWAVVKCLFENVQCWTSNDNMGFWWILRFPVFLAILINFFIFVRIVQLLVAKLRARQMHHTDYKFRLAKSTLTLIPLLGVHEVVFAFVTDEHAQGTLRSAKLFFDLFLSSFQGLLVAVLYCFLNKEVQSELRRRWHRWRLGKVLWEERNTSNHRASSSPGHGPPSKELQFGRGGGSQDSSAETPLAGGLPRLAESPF
T1 sequence (P08473 52-750 limits assumed): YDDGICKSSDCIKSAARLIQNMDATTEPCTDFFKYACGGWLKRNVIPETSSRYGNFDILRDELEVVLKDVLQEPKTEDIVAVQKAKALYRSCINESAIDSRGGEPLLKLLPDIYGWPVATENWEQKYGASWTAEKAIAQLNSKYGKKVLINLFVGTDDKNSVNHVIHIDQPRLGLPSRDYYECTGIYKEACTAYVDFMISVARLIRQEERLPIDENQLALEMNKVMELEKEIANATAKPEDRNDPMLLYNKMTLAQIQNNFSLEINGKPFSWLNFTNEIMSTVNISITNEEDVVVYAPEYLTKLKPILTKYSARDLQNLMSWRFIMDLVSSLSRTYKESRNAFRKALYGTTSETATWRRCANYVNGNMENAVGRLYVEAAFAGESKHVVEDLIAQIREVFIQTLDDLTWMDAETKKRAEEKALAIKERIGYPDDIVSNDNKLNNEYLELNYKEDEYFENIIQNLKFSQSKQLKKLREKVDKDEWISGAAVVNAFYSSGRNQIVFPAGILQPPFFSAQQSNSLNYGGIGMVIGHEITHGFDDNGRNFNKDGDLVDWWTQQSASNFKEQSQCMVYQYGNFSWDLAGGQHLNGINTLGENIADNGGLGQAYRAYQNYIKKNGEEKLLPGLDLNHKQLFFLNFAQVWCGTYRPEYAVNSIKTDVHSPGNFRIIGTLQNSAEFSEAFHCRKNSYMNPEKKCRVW

What is called EC50 is the midpoint of the concentration-response curve. A word on the amount remaining: it is what is left of the initial amount, in per cent. As for `CC[C@H](C)[C@H](NC(=O)C(C)(C)NC(=O)[C@H](CCC(N)=O)NC(=O)[C@@H](NC(=O)[C@H](Cc1ccccc1)NC(=O)[C@H](CC(=O)O)NC(=O)[C@H](CCCCNC(=O)COCCOCCNC(=O)COCCOCCNC(=O)CC[C@H](NC(=O)CCCCCCCCCCCCCCCCC(=O)O)C(=O)O)NC(=O)[C@H](C)NC(=O)[C@H](C)NC(=O)[C@H](CCCNC(=N)N)NC(=O)[C@H](CO)NC(=O)[C@H](CC(=O)O)NC(=O)[C@H](CC(C)C)NC(=O)[C@](C)(Cc1ccccc1)NC(=O)[C@H](CCCCN)NC(=O)[C@H](CO)NC(=O)[C@@H](NC(=O)[C@H](CC(=O)O)NC(=O)[C@H](CO)NC(=O)[C@@H](NC(=O)[C@](C)(Cc1ccccc1)NC(=O)[C@H](CO)NC(=O)CNC(=O)[C@H](Cc1c[nH]cn1)NC(=O)C(C)(C)NC(=O)[C@@H](N)Cc1c[nH]cn1)[C@@H](C)O)C(C)C)C(C)C)C(=O)N[C@@H](C)C(=O)N[C@@H](CC(N)=O)C(=O)N[C@H](C(N)=O)[C@@H](C)O` [Peptide 287] (H-H[Aib]HGS[αMeF]TSDVSK[αMeF]LDSRAAK([AEEA-AEEA-γGlu-C18 diacid])DFVQ[Aib]IANT-NH2), the EC50 in data set [1] (setting [4]) came to 0.0275 nM. The “% Relative Potency Ratio” value in data set [1] (Table 7) amounted to 1.9. In data set [2], this compound gave a fraction remaining at 0.25 h, 125 µM of 0% and an amount remaining at 0.5 h, 125 µM of 0%. For the same compound, on recombinant Neprilysin, the amount remaining at 4 h came out at 77%, the fraction remaining at 24 h is 59% and the “% intact peptide over time” value is on record as 100%. In addition, the EC50 in data set [3] (setting [4]) is 0.0265 nM.
Turning to `CC[C@H](C)[C@H](NC(=O)C(C)(C)NC(=O)[C@H](CCC(=O)O)NC(=O)[C@@H](NC(=O)[C@](C)(Cc1ccccc1)NC(=O)[C@H](CC(=O)O)NC(=O)[C@H](CCCNC(=N)N)NC(=O)[C@H](C)NC(=O)[C@H](C)NC(=O)[C@H](CCCCNC(=O)COCCOCCNC(=O)COCCOCCNC(=O)CC[C@H](NC(=O)CCCCCCCCCCCCCCCCC(=O)O)C(=O)O)NC(=O)[C@H](CO)NC(=O)[C@H](CC(=O)O)NC(=O)[C@H](CC(C)C)NC(=O)[C@](C)(Cc1ccccc1)NC(=O)[C@H](CCCCN)NC(=O)[C@H](CO)NC(=O)[C@@H](NC(=O)[C@H](CC(=O)O)NC(=O)[C@H](CO)NC(=O)[C@@H](NC(=O)[C@](C)(Cc1ccccc1)NC(=O)[C@H](CO)NC(=O)CNC(=O)[C@H](Cc1c[nH]cn1)NC(=O)C(C)(C)NC(=O)[C@@H](N)Cc1c[nH]cn1)[C@@H](C)O)C(C)C)C(C)C)C(=O)N[C@@H](C)C(=O)N[C@@H](CC(N)=O)C(=O)N[C@H](C(N)=O)[C@@H](C)O` [Peptide 15] (H-H[Aib]HGS[αMeF]TSDVSK[αMeF]LDSK([AEEA-AEEA-γGlu-C18 diacid])AARD[αMeF]VE[Aib]IANT-NH2; N-terminus assumed), in data set [1] (setting [5]), the 50% effective concentration (EC50) is 0.0331 nM. In addition, the “% Relative Potency Ratio” value in data set [1] (Table 6) worked out at 3.7. In data set [2], the share remaining at 0.25 h, 125 µM is 91% and the amount remaining at 0.5 h, 125 µM is 77%. Further, on recombinant Neprilysin, the fraction remaining at 4 h amounted to 100%, the fraction remaining at 24 h was 83% and the “% intact peptide over time” value amounted to 100%. Also, in data set [3] (setting [5]), the EC50 came to 0.0614 nM.
Regarding `CC[C@H](C)[C@H](NC(=O)C(C)(C)NC(=O)[C@H](CCC(N)=O)NC(=O)[C@@H](NC(=O)[C@](C)(Cc1ccccc1)NC(=O)[C@H](CC(=O)O)NC(=O)[C@H](CCCCNC(=O)COCCOCCNC(=O)COCCOCCNC(=O)CC[C@H](NC(=O)CC[C@H](NC(=O)CCCCCCCCCCCCCCCCCCC(=O)O)C(=O)O)C(=O)O)NC(=O)[C@H](C)NC(=O)[C@H](C)NC(=O)[C@H](CCCNC(=N)N)NC(=O)[C@H](CO)NC(=O)[C@H](CC(=O)O)NC(=O)[C@H](CC(C)C)NC(=O)[C@H](Cc1ccc(O)cc1)NC(=O)[C@H](CCCCN)NC(=O)[C@H](CO)NC(=O)[C@@H](NC(=O)[C@H](CC(=O)O)NC(=O)[C@H](CO)NC(=O)[C@@H](NC(=O)[C@](C)(Cc1ccccc1)NC(=O)[C@H](CO)NC(=O)CNC(=O)[C@H](Cc1c[nH]cn1)NC(=O)C(C)(C)NC(=O)[C@@H](N)Cc1c[nH]cn1)[C@@H](C)O)C(C)C)C(C)C)C(=O)N[C@@H](C)C(=O)N[C@@H](CC(N)=O)C(=O)N[C@H](C(N)=O)[C@@H](C)O` [Peptide 283] (H-H[Aib]HGS[αMeF]TSDVSKYLDSRAAK([AEEA-AEEA-γGlu-γGlu-C20 diacid])D[αMeF]VQ[Aib]IANT-NH2), the concentration for a half-maximal effect (EC50) in data set [1] (setting [4]) worked out at 0.129 nM. The “% Relative Potency Ratio” value in data set [1] (Table 7) turned out to be 8.4. Besides, in data set [2], the fraction remaining at 0.25 h, 125 µM is 68% and the amount remaining at 0.5 h, 125 µM was 48%. Moreover, at recombinant Neprilysin, the amount remaining at 4 h is 81%, the amount remaining at 24 h was 63% and the “% intact peptide over time” value was 100%. The concentration for a half-maximal effect (EC50) in data set [3] (setting [4]) amounted to 0.552 nM.
As to `CC[C@H](C)[C@H](NC(=O)[C@H](Cc1c[nH]c2ccccc12)NC(=O)[C@H](CCC(N)=O)NC(=O)[C@@H](NC(=O)[C@H](Cc1ccccc1)NC(=O)[C@H](CC(=O)O)NC(=O)[C@H](CCCCNC(=O)COCCOCCNC(=O)COCCOCCNC(=O)CC[C@H](NC(=O)CC[C@H](NC(=O)CCCCCCCCCCCCCCCCCCC(=O)O)C(=O)O)C(=O)O)NC(=O)[C@H](C)NC(=O)[C@H](C)NC(=O)[C@H](CCCNC(=N)N)NC(=O)[C@H](CO)NC(=O)[C@H](CC(=O)O)NC(=O)[C@H](CC(C)C)NC(=O)[C@](C)(Cc1ccccc1)NC(=O)[C@H](CCCCN)NC(=O)[C@H](CO)NC(=O)[C@@H](NC(=O)[C@H](CC(=O)O)NC(=O)[C@H](CO)NC(=O)[C@@H](NC(=O)[C@H](Cc1ccccc1)NC(=O)[C@H](CO)NC(=O)CNC(=O)[C@H](Cc1c[nH]cn1)NC(=O)C(C)(C)NC(=O)[C@@H](N)Cc1c[nH]cn1)[C@@H](C)O)C(C)C)C(C)C)C(=O)N[C@@H](C)C(=O)N[C@@H](CC(N)=O)C(=O)N[C@H](C(N)=O)[C@@H](C)O` [Peptide 290] (H-H[Aib]HGSFTSDVSK[αMeF]LDSRAAK([AEEA-AEEA-γGlu-γGlu-C20 diacid])DFVQWIANT-NH2), in data set [2], the share remaining at 0.25 h, 125 µM is 0% and the amount remaining at 0.5 h, 125 µM was 0%. For the same compound, the “% intact peptide over time” value at recombinant Neprilysin is recorded as 100%.
